Measurements from PMC4766415 (Nature Communications, 2016).

Key:
L55P-TTR = system: T1, L55P-TTR; assay: Dot-blot filter assay of L55P-TTR aggregation secreted by RN22 cells; type: cell-based, human; details: 1 μM in the medium
T1 construct: TTR is composed of four identical 127 amino-acid residue β-sheet-rich subunits; expressed in transfected cells; host or cells: rat Schwannoma RN22 cells, metallothionein promoter, ZnSO4 induction
Experimental: The extent of extracellular L55P-TTR aggregation was monitored by a filter trap assay followed by TTR immunodetection.
The rat Schwannoma cell line RN22 stably co-transfected with TTR L55P cDNA under the control of the metallothionein promoter was used to test the inhibitors of TTR aggregation as in ref. [51]. […] TTR in the medium was quantified by ELISA, and the volume of medium corresponding to 500 ng of TTR was applied on to a 0.2-μm pore cellulose acetate membrane filter (Schleicher and Schuell) using a manifold system (Gibco BRL) to separate soluble proteins from aggregates. […] Detection was performed with ECL (GE Healthcare). Dot blot quantification was performed using the ImageQuant program. The percentage of aggregation inhibition was calculated as 100 × ((Control—Treated)/Control). Experiments were repeated three times in triplicate.

[1] = system: WT and V30M-TTR tetramers in plasma; assay: TTR tetramer stability in human plasma by IEF under semi-denaturing conditions; type: biochemical; details: 1.4 mM, overnight 4 °C, 4 M urea
V122I-TTR = V122I-TTR (Homo sapiens, UniProt P02766, V142I); assay: Isothermal titration calorimetry, V122I-TTR
A25T-TTR = system: T2, A25T-TTR; assay: A25T-TTR sedimentation assay (total protein precipitation); type: biochemical, human; details: four molar equivalents (15 μM); pH 5.0, 37 °C, 22 h
T2 construct: TTR is composed of four identical 127 amino-acid residue β-sheet-rich subunits; made in house; host or cells: Escherichia coli BL21(DE3), pET expression system
Experimental: TTR aggregation can also be measured by sedimentation using centrifugation. […] TTR aggregation induction was performed as described above. […] The supernatant was carefully removed, and 400 μl of Guanidine (8 M) was added to each sample and subsequently incubated for 1 h to unfold the aggregated TTR. The amount of resolubilized TTR was measured by absorbance at 280 nm. The percentage of TTR precipitated was calculated with respect to total (soluble) TTR at time 0. […]
aggregation as measured by total protein precipitation. […]
aggregation conditions (pH 4.4 and 37°C) for 72 hours. The samples were then centrifuged at 20,000 x g for 1 h at 4 °C and the supernatants (soluble protein) were carefully removed. The precipitated TTR from each sample was resolubilized by addition of 8 M guanidine solution followed by 1 h incubation at RT. TTR concentration was measured by spectroscopy at 280 nm and total amount of resolubilized TTR was calculated. The data is presented as % insoluble […]
was performed for A25T-TTR at pH 5.0 and 37°C for 22 hours . […]

[2] = Tolcapone quantification in human plasma after oral administration (UPLC-MS/MS); type: in vivo; details: 200 mg
Experimental: TTR stabilization in vivo was measured using an immunoturbidimetric assay as in Fig. 4c. The fraction of initial tetramer concentration (FOI) was determined in triplicate for each sample (FOI=TTR tetramer after 48 h urea treatment/TTR tetramer at time 0 in the presence of urea).
Blood was collected 30 min before administration and 2 h after the dose in BD Vacutainer tubes with Lithium-Heparin and gel for plasma separation, following the manufacturer's instructions. Briefly, after gently mixing the tubes by inversion, blood was centrifuged at 1,300g for 10 min at 20 °C. Supernatants were collected and immediately stored at −80 °C until analysis.
Extracted samples were analysed on a Waters Acquity UPLC coupled with a Waters Xevo TQ MS triple quadrupole mass spectrometer. Chromatographic separation was achieved on an Acquity HSS C18 column using a gradient elution with the mobile phase of methanol and 0.1% formic acid in water.

human V30M-TTR = system: T3, human V30M-TTR; assay: T4 competition in plasma of transgenic mice after oral tolcapone; type: in vivo; details: 30 to 300 mg kg^−1 by gavage
T3 construct: plasma samples from the transgenic mice expressing human V30M-TTR; from tissue; host or cells: plasma of transgenic mice expressing human V30M-TTR
Experimental: The animals were killed 1 h after the last dose. Plasma samples were obtained before dosing (t=0) and at the end of the experiment. T4 competition assays by native gel electrophoresis were performed in plasma following the same protocol as in Fig. 4a. At basal conditions (t=0), around 40% of the total radioactivity was associated with the TTR band in samples from all animals.
Plasma samples were treated with radiolabelled T4 and subjected to native PAGE. The fraction of radiolabelled T4 bound to the band corresponding to TTR is represented. Error bars indicate s.e.m. (n=4). (b) TTR tetramer stability in the plasma of control and tolcapone-treated transgenic mice was assessed by IEF under semi-denaturing conditions. The ratio between the TTR tetramers and the rest of the TTR species in the IEF gels was calculated for controls and tolcapone-treated mice. The data are expressed as fold increase of the ratio TTR tetramer/total TTR with respect to samples from vehicle-treated animals. ***P<0.001 and **P<0.01 (Student's t-test). Error bars indicate s.e.m. (n=3). […] TTR stabilization was quantified by immunoturbidity after urea denaturation with subsequent crosslinking with glutaraldehyde as detailed in the experimental section. […] White bars correspond to plasma samples crosslinked 0 h after urea addition, black bars correspond to plasma samples crosslinked after 48 h of urea denaturation. […]

[3] = two identical and independent binding sites

- TΔs binding entropy (V122I-TTR; called unfavourable): 1.6 kcal/mol
- Δh binding enthalpy per site (V122I-TTR; [3]): -11.5 kcal/mol
- β1 association constant (V122I-TTR; [3]): 1.8e+07 M⁻¹
- concentration at 2 h [2]: 13.6 µM
Compound: Cc1ccc(C(=O)c2cc(O)c(O)c([N+](=O)[O-])c2)cc1 [tolcapone]
- reduction of L55P-TTR aggregation compared with untreated cells (L55P-TTR): ~90%
- TTR tetramer stabilization in plasma [1]: stabilized WT and V30M-TTR tetramers in plasma
- reduction of A25T-TTR aggregation (sedimentation, Supplementary Fig. 1b) (A25T-TTR): 50%
- amount of T4 remaining bound to TTR at the end of treatment (human V30M-TTR): decreased in a dose-dependent manner
